Some test systems named below: SF-295; NCI-H460; SR; OVCAR-5; BT-549; MCF7; UO-31; HCT-15; KM12; MDA-MB-231; LOX IMVI; HT-29; ACHN; SNB-19; RPMI-8226; IGROV-1; EKVX; K562; HOP-92; SF-539.
Holding throughout (experiment): NCI tumour cell line growth inhibition, 48 h

Each structure is given as a SMILES string.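 Assay format: 96-well plates, 48-hour exposure. At the GI50, growth is halved.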 The source made the active and inactive calls. No stated cut-off is given here; in the data, active = GI50 up to about 1.1 µM and inactive = higher.

Turning to `COc1cc2nc(-c3ccccc3)cc(O)c2c(OC)c1OC`, the GI50 in the test on SF-295 is > 100 µM (inactive); with NCI-H460, > 100 µM (inactive); with SR it was > 100 µM (inactive); with OVCAR-5, > 100 µM (inactive); in the test with BT-549, > 100 µM (inactive); with MCF7, 67.1 µM (inactive). Also, the GI50 was 98.4 µM (inactive) with UO-31; more than 100 µM with HCT-15; > 100 µM (inactive) in the test with KM12; 61 µM (inactive) in the test with MDA-MB-231; > 100 µM (inactive) with LOX IMVI; > 100 µM (inactive) with HT-29. Also, the GI50 in the test with ACHN, in the test with SNB-19, in the test on RPMI-8226, in the test with IGROV-1, in the test with EKVX and in the test with K562 was > 100 µM (inactive) in each case.
Take `Cn1c(=O)[nH]n(-c2ccc3ccccc3c2)c1=O`: the GI50 in the test with SF-295, with NCI-H460, in the test with OVCAR-5, in the test with BT-549, in the test on MCF7 and with UO-31 was > 100 µM (inactive) each time. The GI50 is more than 100 µM in the test on HCT-15; > 100 µM (inactive) in the test with KM12; > 100 µM (inactive) with MDA-MB-231; > 100 µM (inactive) in the test with HOP-92; > 100 µM (inactive) in the test on LOX IMVI; > 100 µM (inactive) with HT-29. In addition, the GI50 in the test with ACHN, with SNB-19, with RPMI-8226, in the test with IGROV-1, in the test with EKVX and in the test on K562 was > 100 µM (inactive) in each case. Besides, in the test on SF-539, the GI50 was > 100 µM (inactive).
Regarding `O=C1NC(=S)N/C1=C/c1c(-c2ccccc2)[nH]c2ccccc12`, the GI50 in the test on SF-295 is 12.8 µM (inactive); in the test on NCI-H460, 12.9 µM (inactive); with SR, 6.32 µM (inactive); in the test with OVCAR-5 it was 17.9 µM (inactive); in the test on BT-549, 12.6 µM (inactive); in the test with MCF7 it was 15.2 µM (inactive). Moreover, the GI50 with UO-31 was 9.23 µM (inactive); with HCT-15, 14.7 µM; with KM12, 14.6 µM (inactive); in the test with MDA-MB-231, 13.7 µM (inactive); in the test on LOX IMVI, 10.9 µM (inactive); in the test on HT-29, 16.3 µM (inactive). In addition, the GI50 is 17.4 µM (inactive) in the test on ACHN; 16.5 µM (inactive) with SNB-19; 8.73 µM (inactive) in the test on RPMI-8226; 13.8 µM (inactive) with IGROV-1; 14.5 µM (inactive) with EKVX; 10.1 µM (inactive) with K562. Further, the GI50 with SF-539 was 17.4 µM (inactive).
Take `O/N=C(/C(Cl)=C(Cl)Cl)C(Cl)Cl`: the GI50 with SF-295 was 19.2 µM (inactive); in the test with NCI-H460, 37.2 µM (inactive); in the test on SR, 10.8 µM (inactive); in the test on OVCAR-5, 25.9 µM (inactive); with BT-549, 21.3 µM (inactive); in the test with MCF7 it was 25.6 µM (inactive). Moreover, the GI50 in the test with UO-31 is 20.9 µM (inactive); in the test on HCT-15, 17.2 µM; with KM12 it was 22.4 µM (inactive); in the test on MDA-MB-231, 19.2 µM (inactive); in the test with LOX IMVI, 17.2 µM (inactive); with HT-29, 16.7 µM (inactive). In addition, the GI50 in the test on ACHN was 17.9 µM (inactive); in the test on SNB-19, 31.5 µM (inactive); with RPMI-8226 it was 14.2 µM (inactive); in the test with IGROV-1, 20.4 µM (inactive); in the test on EKVX, 42.5 µM (inactive); in the test on K562, 13.3 µM (inactive). Besides, the GI50 in the test on SF-539 was 21.5 µM (inactive).
`O=C(O)Cn1ccc(=O)c2ccc([N+](=O)[O-])cc21`: the GI50 in the test with SF-295, in the test on NCI-H460, with SR, in the test with OVCAR-5, in the test on BT-549 and in the test with MCF7 was > 100 µM (inactive) each time. Moreover, the GI50 was > 100 µM (inactive) in the test on UO-31; more than 100 µM with HCT-15; > 100 µM (inactive) in the test with KM12; 28.8 µM (inactive) with MDA-MB-231; > 100 µM (inactive) in the test on HT-29; > 100 µM (inactive) in the test on ACHN. Also, the GI50 in the test on SNB-19, in the test on IGROV-1, in the test on K562 and in the test on SF-539 was > 100 µM (inactive) throughout.
Consider `OC[C@H]1N[C@H](CO)[C@@H](O)[C@H]1O`, for which the GI50 with SF-295, in the test with SR, in the test with OVCAR-5, with BT-549, in the test on MCF7 and with UO-31 was > 100 µM (inactive) in each case. Further, the GI50 in the test with HCT-15 was more than 100 µM; in the test with KM12 it was > 100 µM (inactive); in the test with MDA-MB-231 it was > 100 µM (inactive); with LOX IMVI, > 100 µM (inactive); in the test on HT-29, > 100 µM (inactive); in the test with ACHN, > 100 µM (inactive). For the same compound, the GI50 in the test on SNB-19, in the test with RPMI-8226, with IGROV-1, in the test on EKVX, in the test with K562 and in the test on SF-539 was > 100 µM (inactive) throughout.
Consider `C=C1CC/C=C(/C(=O)O)CC[C@H]2[C@@H]1CC2(C)C`, for which the GI50 in the test with SF-295, in the test with NCI-H460, with OVCAR-5, in the test on BT-549, with MCF7 and in the test with UO-31 was > 100 µM (inactive) throughout. Besides, the GI50 in the test with HCT-15 was more than 100 µM; in the test with KM12 it was > 100 µM (inactive); with MDA-MB-231 it was > 100 µM (inactive); in the test with HOP-92, 70 µM (inactive); with LOX IMVI it was > 100 µM (inactive); with HT-29, > 100 µM (inactive). Also, the GI50 in the test on ACHN, in the test on SNB-19, in the test on RPMI-8226, with IGROV-1, with EKVX and in the test on K562 was > 100 µM (inactive) throughout. For the same compound, in the test on SF-539, the GI50 was > 100 µM (inactive).
In the case of `Oc1ccc2c(c1)CCc1c-2n(CCN2CCOCC2)c2ccc(O)cc12`, the GI50 in the test with SF-295 was 47.2 µM (inactive); with NCI-H460, 33.2 µM (inactive); in the test on SR, > 100 µM (inactive); in the test on OVCAR-5 it was 78.3 µM (inactive); with BT-549, 31.3 µM (inactive); with MCF7 it was 23.5 µM (inactive). The GI50 with UO-31 is 10.4 µM (inactive); in the test with HCT-15 it was 36.1 µM; in the test on KM12 it was 20.8 µM (inactive); with MDA-MB-231, 49.7 µM (inactive); in the test with LOX IMVI it was 41.2 µM (inactive); with ACHN it was 16.1 µM (inactive). Moreover, the GI50 in the test on SNB-19 is 25.1 µM (inactive); with RPMI-8226, 29.1 µM (inactive); with IGROV-1, 11 µM (inactive); in the test on EKVX, 38.8 µM (inactive); with K562, 41.6 µM (inactive); in the test with SF-539, 27.9 µM (inactive).
With `Cc1nc(N)c(N2CCN(C#N)CC2)c(O)n1`, the GI50 in the test with SF-295, in the test with NCI-H460, with SR, in the test on OVCAR-5, in the test with BT-549 and in the test with MCF7 was > 100 µM (inactive) each time. Also, the GI50 was > 100 µM (inactive) with UO-31; more than 100 µM in the test on HCT-15; > 100 µM (inactive) in the test on KM12; > 100 µM (inactive) with MDA-MB-231; > 100 µM (inactive) with LOX IMVI; > 100 µM (inactive) in the test on HT-29. For the same compound, the GI50 in the test with ACHN, with SNB-19, in the test with RPMI-8226, with EKVX, in the test on K562 and in the test on SF-539 was > 100 µM (inactive) throughout.
Turning to `COC(=O)c1ccccc1NC(=S)NN(C)C`, the GI50 in the test with SF-295, in the test on SR, in the test on OVCAR-5, with BT-549, in the test on MCF7 and in the test with UO-31 was > 100 µM (inactive) each time. In addition, the GI50 was more than 100 µM in the test with HCT-15; > 100 µM (inactive) in the test with KM12; > 100 µM (inactive) in the test with MDA-MB-231; > 100 µM (inactive) in the test on LOX IMVI; > 100 µM (inactive) in the test with ACHN; > 100 µM (inactive) with SNB-19. Further, the GI50 with RPMI-8226, in the test with IGROV-1, in the test with EKVX, with K562 and in the test on SF-539 was > 100 µM (inactive) throughout.
Turning to `COc1cc2nc(-c3cccs3)nc(Cl)c2cc1OC`, the GI50 in the test on SF-295 is > 100 µM (inactive); with NCI-H460 it was > 100 µM (inactive); with SR, 0.339 µM (active); in the test on OVCAR-5, > 100 µM (inactive); in the test on BT-549, > 100 µM (inactive); in the test on MCF7 it was 23.4 µM (inactive). The GI50 in the test with UO-31 was > 100 µM (inactive); with HCT-15, more than 100 µM; in the test on KM12, > 100 µM (inactive); with MDA-MB-231 it was > 100 µM (inactive); in the test on HT-29 it was 61.7 µM (inactive); in the test on ACHN, > 100 µM (inactive). Moreover, the GI50 is > 100 µM (inactive) in the test on SNB-19; > 100 µM (inactive) in the test with IGROV-1; 18.6 µM (inactive) with EKVX; 69.5 µM (inactive) with K562; > 100 µM (inactive) in the test on SF-539.

Values taken from ChEMBL document CHEMBL1201862, “PubChem BioAssay data set” (2004).
